Results as given in PMC5380659, “Unique charge-dependent constraint on collagen recognition by integrin α10β1” (Matrix Biology, 2017).
Entries after “also recorded” stand apart in the source; their conditions may differ.

Key:
[1] = test system: C2C12-α10β1 cells; assay: xCELLigence real-time adhesion of C2C12-α10β1 cells; assay type: cell-based, mouse; conditions: 2.5 × 10^4 cells/well, 2 mM Mg^2 +, over 1 h, Fig. 3A
Procedure: Fig. 3 Binding of α10β1-transfected C2C12 cells to collagens and selected Toolkit peptides. Peptides or collagens were coated on ePlates as described, then cells were added in the presence of 2 mM Mg^2 + or EDTA, and Cell Index value was collected over 1 h. […] B: time courses are shown of adhesion to selected Toolkit peptides or GPP-10.
(§1) To quantitate C2C12-α10β1 binding to collagen peptides, we used the impedance-based xCELLigence system (Acea) that allows label-free, dynamic monitoring of cell adhesion in real-time. The assay system expresses the adhesion-dependent rise in well impedance in units of cell index (CI), defined as (Rn − Rb) / 15; where Rn is the electrical impedance of each cell-containing well and Rb is the background impedance of the well with medium alone
Briefly, C2C12 cells were seeded at 2.5 × 10^4 cells/well in an E-plate (Roche Applied Science) pre-coated with peptides as for SPBA, and CI was measured for up to 2 h.

[2] = test system: integrin α1β1; set-up: method as in 3 sources, ref [4]; PMID 19693543; doi:10.1007/s00441-009-0834-6; 4 Barczyk M. Carracedo S. Gullberg D. Integrins Cell Tissue Res. 339 1 2010 269 280 19693543 10.1007/s00441-009-0834-6 PMC2784866 ||| ref [12] = [12]; PMID 22654115; doi:10.1074/jbc.M112.353144; 12 Hamaia S.W. Pugh N. Raynal N. Nemoz B. Stone R. Gullberg D. Bihan D. Farndale R.W. Mapping of potent and specific binding motifs, GLOGEN and GVOGEA, for integrin alpha1beta1 using collagen toolkits ||| ref not given; conditions: ref [4]; cited from earlier work
Excerpt: The collagen-binding integrin family is complete, with four established members, α1β1, α2β1, α10β1 and α11β1. These are highly-conserved, heterodimeric receptors with an important structural feature in common, the presence of an I (inserted) domain which contains the metal ion-dependent adhesion site (MIDAS). The MIDAS is a constellation of electronegative residues at the distal surface of this 200-residue domain that, in the resting, non-ligated state, can co-ordinate a Mg^2 + ion. […] Many related motifs have now been identified using the Collagen Toolkits developed in this laboratory for the purpose. These are libraries of overlapping peptides of 27 amino acids of collagen primary sequence (guest sequence), flanked ... || Why would collagen II differ in this respect?

[3] = test system: α10β1; set-up: method as in not given; conditions: ref not given; cited from earlier work
Excerpt: In the setting of cartilage, collagen III, although enriched in the pericellular environment, is much less abundant than collagen II [22], and its expression increases with age or with th ...

[4] = test system: human recombinant GST-α10 I domain; assay: Solid-phase binding assay (SPBA) of wild-type α10 I domain; conditions: short THPs, 2 mM Mg^2 +, 1 h, Fig. 4A
Procedure: The α10 I domain was applied to the collagen II and III Toolkits in the presence or absence of Mg^2 +, and was detected using anti-GST, as described in Experimental: data are shown in Fig. 1. The background response is indicated by wells coated with the control peptide, GPP10 (corresponding to the host sequence), or BSA.
(§2) I domain adhesion was determined colorimetrically, as described, here termed solid phase binding assay (SPBA). Peptides were coated at 10 μg/ml for 1 h at 22 °C on Immulon-2 HB 96-well plates (Thermo Life Sciences, Basingstoke, UK), and blocked for 1 h with 200 μl of TBS containing 50 mg/ml bovine serum albumin. Wells were washed four times with 200 μl of the adhesion buffer (TBS with 1 mg/ml bovine serum albumin) before adding 100 μl of adhesion buffer containing 10 μg/ml of recombinant GST I domains in the presence of either 2 mM MgCl2 or EDTA for 1 h at room temperature. Wells were washed five times with 200 μl of adhesion buffer containing MgCl2 or EDTA, before adding 100 μl of adhesion buffer containing the anti-GST-HRP conjugate at 1:10,000 dilution for 1 h at room temperature. After washing, colour was developed using an ImmunoPure TMB Substrate Kit (Pierce) according to the manufacturer's instructions.

[5] = test system: C2C12-α10β1 cells; assay: LDH-based SPBA of C2C12-α10β1 cell adhesion; set-up: species or system mouse; conditions: short THPs, 2 mM Mg^2 +, 1 h, Fig. 4B
Procedure: The mouse myoblast cell line, C2C12-α10β1 clone, expresses α10β1 as its sole collagen-binding integrin [16]. To investigate the binding of α10β1 to collagen in a cellular and whole integrin context, therefore, the adhesion of C2C12-α10β1 cells to Toolkits II and III was performed using two different approaches. First, SPBA was used, with lactate dehydrogenase to report the presence of adherent cells, after lysis, as described in Experimental. […] C2C12-α10B1 cells generally bound more prominently to those weaker peptides that supported just-observable binding of free I-domain. This may reflect avidity of the receptor-populated cell surface for the peptide-coated wells, or perhaps up-regulation of integrin affinity following receptor engagement. It is also possible that some cell binding reflects specific indirect interactions. For example, fibronectin, available either by intrinsic expression or from the serum supplement, binds well to II-44, and can also bind integrin αVβ3 [21].
Fig. 2 Binding of α10β1-transfected C2C12 cells to Collagen Toolkits. 96-well plates were coated with peptides as for Fig. 1, then C2C12-α10β1 cells (5 × 10^4 per well) were added and incubated for 1 h in the presence of either 2 mM MgCl2 or 2 mM EDTA as above. A: binding to Toolkit II. B: binding to Toolkit III.
(§3) The mouse myoblast cell line, C2C12, (control and transfectants, C2C12-α1β1, C2C12-α2β1, C2C12-α10β1 or C2C12-α11β1) was maintained in RPMI medium containing 10% fetal bovine serum, 2 mM glutamine, 100 IU/ml penicillin, 100 μg/ml streptomycin, and 2.5 μg/ml amphotericin. Cells were harvested by centrifugation, washed, and suspended at 0.5 × 10^6/ml in Tris-buffered saline supplemented with 5.5 mM glucose and either 2 mM EDTA or 2 mM MgCl2. SPBA was performed as follows: 100 μl of the cell suspension was added to peptide-coated wells [42] at 20 °C for 60 min. Cell adhesion was determined colorimetrically after lysis, using a lactate dehydrogenase (LDH)-based cell detection kit (Roche Diagnostics) according to the supplier's instructions.

[6] = test system: α10β1; assay: Overall recognition by α10β1 (I domain and C2C12-α10β1 cells, summary); conditions: abstract and discussion; I domain and/or C2C12-α10β1 cells
Procedure: as §2, §3, §1

[7] = test system: collagen-binding integrins; set-up: method as in 3 sources, ref [7], [8] = [7]; PMID 10778855; doi:10.1016/S0092-8674(00)80622-4; 7 Emsley J. Knight C.G. Farndale R.W. Barnes M.J. Liddington R.C. Structural basis of collagen recognition by integrin alpha2beta1 Cell 101 1 2000 47 56 10778855 10.1016/S0092-8674(00)80622-4 || [8]; PMID 16326707; doi:10.1074/jbc.M509818200; 8 Raynal N. Hamaia S.W. Siljander P.R. Maddox B. Peachey A.R. Fernandez R. Foley L.J. Slatter D.A. Jarvis G.E. Farndale R.W. Use of synthetic peptides to locate novel integrin alpha2beta1-binding moti ||| ref [8], [10] = [8]; PMID 16326707; doi:10.1074/jbc.M509818200; 8 Raynal N. Hamaia S.W. Siljander P.R. Maddox B. Peachey A.R. Fernandez R. Foley L.J. Slatter D.A. Jarvis G.E. Farndale R.W. Use of synthetic peptides to locate novel integrin alpha2beta1-binding moti || [10]; PMID 16043429; doi:10.1074/jbc.M502431200; 10 Kim J.K. Xu Y. Xu X. Keene D.R. Gurusiddappa S. Liang X. Wary K.K. Hook M. A novel binding site in collagen type III for the integrins, alpha 1beta 1 and alpha 2beta 1 J. Biol. Chem. 280 2005 32512 ||| ref [11] = [11]; PMID 10986291; doi:10.1074/jbc.M007668200; 11 Xu Y. Gurusiddappa S. Rich R.L. Owens R.T. Keene D.R. Mayne R. Hook A. Hook M. Multiple binding sites in collagen type I for the integrins α1β1 and α2β1 J. Biol. Chem. 275 2000 38981 38989 10986291; conditions: ref [11]; cited from earlier work
Excerpt: Many related motifs have now been identified using the Collagen Toolkits developed in this laboratory for the purpose. These are libraries of overlapping peptides of 27 amino acids of collagen primary sequence (guest sequence), flanked ...

| Substance | Cell adhesion to collagens (Cell Index, endpoint) [1] | Reported binding of α10β1 to collagens [3] | Adhesion of C2C12-α10β1 cells to short triple-helical peptides [5] | Recognition by α10β1, summary [6] | Ligand of collagen-binding integrins, weak motifs [7] | also measured |
| --- | --- | --- | --- | --- | --- | --- |
| collagen IV: intact collagen IV | better | better ligand |  |  |  | Preferred ligand of α1β1 [2]: preferred ligand |
| GLOGER [short triple-helical peptide containing GLOGER] |  |  | bound strongly | binds α10β1 better than GFOGER, second only to GLOGEN; also recorded: α10β1-positive |  | Binding of α10 I domain to short triple-helical peptides [4]: less well |
| GLSGER [short triple-helical peptide containing GLSGER] |  |  | bound strongly | α10β1-positive | weak ligands |  |
| collagen II: intact collagen II | bound quite well | binds |  |  |  |  |
| GASGER [integrin motif in collagens I, XXIII] |  |  |  |  | weak ligands |  |
